“Also recorded” adds a separate entry of the source.
Legend:
Assay type in all cases: in vivo
[1] = tested on: auxin inducible reporter gene called DR5; assay: Auxin inducible reporter gene DR5 expression; conditions: auxin treatment; PA especially at high levels
Description: The effects of auxin on an auxin inducible reporter gene called DR5 were measured. Normally, auxin treatment results in increased expression of DR5, which is evidenced by blue color in the roots and leaf tip.

seedling roots [2] = assay: Root growth in presence of a highly inhibitory amount of NAA, with or without PA; conditions: PA added
Description: (§1) This is not a toxicity issue in due to the data in panels 10B and C. In panel 10B, seedlings were grown in the absence or presence of a highly inhibitory amount of NAA. A subset of these seedlings also had PA added to them. […] Gravitropism is a well know auxin dependent phenomenon.

[3] = tested on: Wild type Arabidopsis seedlings; assay: Ethylene dependent seedling triple response, dark, saturating ethylene
Description: (§2) FIG. 5. Wild type Arabidopsis seedlings were grown for four days in the dark in the presence of saturating ethylene (100 ppm) and either 0 or 10 μM pamoic acid after which it was determined whether aspects of the ethylene dependent seedling triple response were affected.
FIG. 6. Wild type Arabidopsis seedlings were grown for four days in the dark in the presence of either the ethylene perception inhibitor AgNO3 or saturating ethylene (100 ppm) along with either 0 or 10 μM pamoic acid. Following this, hypocotyl length and number of seedlings presenting an ethylene dependent apical hook in the presence of saturating ethylene (shown as percentages) were determined (n=40).
FIG. 7. Wild type Arabidopsis seedlings were grown for four days in the dark in the presence of either air or saturating ethylene (100 ppm) along with either 0 or 10 μM pamoic acid. Following this, root length was measured for each treatment (n=40).
(§3) This is a dark phenotype that results in severe stunting of shoot and root growth along with a pronounced apical hook in the presence of saturating ethylene. This phenotype is ultimately conditioned by auxin acting through ethylene. […] FIG. 5 represents a mutant that has constitutive ethylene signaling (ctr1) and FIGS. 6 and 7 represents wild type treated with ethylene+/−PA.

[4] = tested on: Flowers of Dianthus caryophyllus (carnation); assay: Ethylene dependent flower senescence of cut carnations; conditions: cut flowers in water supplemented with 50 μM pamoic acid, observed to Day 8
Description: FIG. 8. Flowers of Dianthus caryophyllus (carnation) were harvested and immediately placed cut side down into either water or water supplemented with 50 μM pamoic acid.

[5] = tested on: genes that require both ethylene and auxin for induction; assay: Expression of genes dependent on auxin and ethylene in presence of PA; conditions: in the presence of PA (panel 12B)
Description: (§4) Since PA reduces ethylene response, it was natural to assume that it would also reduce ethylene mediated gene expression. […] PA was then tested on gene expression that was dependent on auxin and ethylene.

[6] = tested on: Mutant Arabidopsis seedlings (ctrl-3); assay: Constitutive ethylene response phenotype of mutant seedlings
Description: FIG. 3. Mutant Arabidopsis seedlings (ctrl-3) that have a constitutive ethylene response phenotype, including severe root shortening dependent on unregulated ethylene signaling, were grown in the light in nutrient medium supplemented with either 0 or 10 μM pamoic acid for 7 days. Following this, roots of each were measured (n=40).
as §2, §3

seedling roots [7] = assay: Growth of seedlings on increasing amounts of PA (root growth)
Description: as §1

wild type roots = assay: Gravitropic response of seedlings
Description: as §1

ethylene inducible genes = assay: Ethylene inducible gene expression in presence of PA; conditions: ethylene treatment in the presence of PA (panel 12A); listed as PA
Description: as §4

[8] = wild type, four days in the dark, saturating ethylene (100 ppm), 10 μM pamoic acid

SMILES	DR5 expression [1]	length of PA+NAA treated roots relative to NAA treated roots (seedling roots [2])	ethylene response phenomena including apical hook formation and root growth inhibition ([3]; wild type treated with ethylene +/- PA (FIGS. 6 and 7))	ethylene dependent apical hook [3, 8]	root length compared to seedlings not treated with pamoic acid [3, 8]	petal inrolling or petal senescence [4]	expression of two genes that require both ethylene and auxin for induction [5]	constitutive ethylene response of ctrl-3 mutants ([6]; ctrl-3 mutants)	ethylene response phenomena including apical hook formation and root growth inhibition ([6]; mutant with constitutive ethylene signaling (ctr1), FIG. 5)	root growth at high concentrations of PA (seedling roots [7]; high concentrations of PA)	root length with increasing amounts of PA (seedling roots [7]; increasing amounts of PA)	gravitropism of roots and shoots (wild type roots; in the presence of PA)	gravitropic response of seedling roots (wild type roots; wild type roots treated with PA)	expression of ethylene inducible genes following ethylene treatment (ethylene inducible genes)
CC(C)(Oc1ccc(Cl)cc1)C(=O)O [CPIB, reference compound]	eliminates DR5 expression													
O=C(O)c1cc2ccccc2c(Cc2c(O)c(C(=O)O)cc3ccccc23)c1O [pamoic acid, Pamoic acid]	reduced or eliminated DR5 expression	nearly double the length of NAA treated roots	strictly blocks	elimination of the ethylene dependent apical hook	significant increase in root length	no evidence of petal inrolling or petal senescence even after Day 8	extremely reduced	reversing the constitutive ethylene response	strictly blocks	almost completely block root growth	progressively shorter roots	both roots and shoots become agravitropic	completely destroys the gravitropic response	also upregulated in the presence of PA; also recorded: normally upregulated following ethylene treatment even in the presence of PA

From patent US9877479B2, “Pamoic acid blocks ethelyne signaling” (THE REGENTS OF THE UNIVERSITY OF CALIFORNIA, priority 2010, dated 2018)
